Experimental data taken from patent publication US9224959B2, “Method for producing a pi-electron conjugated compound” (Ricoh Company, Ltd., priority 2009, dated 2015).

How the values were obtained:
[1] = carboxylic acid as eliminated component; cited from earlier work
[2] = Evaluation of solubility (saturated solution after reflux and cooling to room temperature); type: physicochemical; conditions: refluxed 10 min, cooled to room temperature, left 16 hours, 0.2 μm PTFE filtered
Experimental: The mixture was further stirred for 1 hour and left to stand for 16 hours, and the supernatant was filtered using a 0.2 μm-PTFE filter, to thereby obtain a saturated solution. The saturated solution was dried under reduced pressure, and the solubility of the precursor in each solvent was calculated.

Row | Compound | Acidity [1] [pKa] | Solubility in THF [2] | Solubility in Anisole [2] | Solubility in Chloroform [2] | Solubility in Toluene [2]
1 | O=C(O)CC(F)(F)F [3,3,3-trifluoropropionic acid] | 3.0 |  |  |  | 
2 | CC(C)(C)C(=O)OC1CCC(OC(=O)C(C)(C)C)c2cc(-c3cc4sc(-c5ccc6c(c5)C(OC(=O)C(C)(C)C)CCC6OC(=O)C(C)(C)C)cc4s3)ccc21 (stereo not shown) [Compound 12] |  | A (the solubility is 0.5% by mass or more) | A (the solubility is 0.5% by mass or more) | A (the solubility is 0.5% by mass or more) | A (the solubility is 0.5% by mass or more)
3 | O=C(CC(F)(F)F)OC1CCC(OC(=O)CC(F)(F)F)c2cc(-c3cc4sc(-c5ccc6c(c5)C(OC(=O)CC(F)(F)F)CCC6OC(=O)CC(F)(F)F)cc4s3)ccc21 (stereo not shown) [Compound 13] |  | A (the solubility is 0.5% by mass or more) | B (the solubility is 0.1% by mass or more to less than 0.5% by mass) | A (the solubility is 0.5% by mass or more) | A (the solubility is 0.5% by mass or more)
4 | O=C(CC(F)(F)F)OC1CCC(OC(=O)CC(F)(F)F)c2cc(-c3cc4cc5sc(-c6ccc7c(c6)C(OC(=O)CC(F)(F)F)CCC7OC(=O)CC(F)(F)F)cc5cc4s3)ccc21 (stereo not shown) [Compound 14] |  | A (the solubility is 0.5% by mass or more) | A (the solubility is 0.5% by mass or more) | A (the solubility is 0.5% by mass or more) | B (the solubility is 0.1% by mass or more to less than 0.5% by mass)
5 | O=C(CC(F)(F)F)OC1CCC(OC(=O)CC(F)(F)F)c2cc(-c3ccc4c(c3)sc3c5ccc(-c6ccc7c(c6)C(OC(=O)CC(F)(F)F)CCC7OC(=O)CC(F)(F)F)cc5sc43)ccc21 (stereo not shown) [Compound 16] |  | A (the solubility is 0.5% by mass or more) | B (the solubility is 0.1% by mass or more to less than 0.5% by mass) | A (the solubility is 0.5% by mass or more) | B (the solubility is 0.1% by mass or more to less than 0.5% by mass)
6 | c1ccc2cc(-c3cc4sc(-c5ccc6ccccc6c5)cc4s3)ccc2c1 [Compound 17] |  | D (the solubility is less than 0.005% by mass) | D (the solubility is less than 0.005% by mass) | D (the solubility is less than 0.005% by mass) | D (the solubility is less than 0.005% by mass)
7 | c1ccc2cc(-c3cc4cc5sc(-c6ccc7ccccc7c6)cc5cc4s3)ccc2c1 [Compound 18] |  | D (the solubility is less than 0.005% by mass) | D (the solubility is less than 0.005% by mass) | D (the solubility is less than 0.005% by mass) | D (the solubility is less than 0.005% by mass)
8 | c1ccc2cc(-c3ccc4c(c3)sc3c5ccc(-c6ccc7ccccc7c6)cc5sc43)ccc2c1 [Compound 19] |  | D (the solubility is less than 0.005% by mass) | D (the solubility is less than 0.005% by mass) | D (the solubility is less than 0.005% by mass) | D (the solubility is less than 0.005% by mass)
9 | CCCCCC(=O)O [caproic acid] | 4.6 |  |  |  | 
10 | CC(C)(C)C(=O)O [pivalic acid] | 5.0 |  |  |  | 
